# Reference: patent US5681964A, “Permeable, non-irritating prodrugs of nonsteroidal and steroidal agents” (University of Kentucky Research Foundation, priority 1994, dated 1997)
# Read-outs that look alike come from different tables or passages of the source.
# Experiments:
# t1/2 in serum (Table 1) = assay type: in vitro ADME
# [1] = t1/2 in PB (7.4) (Table 1); assay type: physicochemical; conditions: for half-life: pH 7.4; for t1/2 in PB (7.4): result in words
# Solubility (Table 1) = assay type: physicochemical
# rabbit eye = assay: irritancy in the rabbit eye, daily drops for seven days; assay type: in vivo; conditions: for degree of irritation to the cornea as compared to flurbiprofen in the acid form: 25 microliters (monoester, flurbiprofen) or 30 microliters (diester) into each eye daily, seven days, slit lamp, electron microscopy; for conversion into the flurbiprofen acid form during transport into the eye: aqueous humor and vitreous humor after seven days
# Description: Another experiment was performed with tetraethylene glycol flurbiprofenate and tetraethylene glycol bis-flurbiprofenate to determine the irritancy of these prodrugs in the rabbit eye.
# 25 microliters of tetraethylene flurbiprofenate were dropped into each eye of two rabbits each day for seven days. Also, 30 microliters of tetraethylene glycol bis-flurbiprofenate was dropped into each eye of two rabbits each day for 7 days. A control using 25 microliters of flurbiprofen was dropped into each eye of two rabbits for seven days. Each morning the rabbit's eyes were examined by slit lamp for evidence of cornea damage and irritation. After seven days the animals were sacrificed and samples of the aqueous humor and vitreous humor were obtained for analysis of flurbiprofen and a flurbiprofen ester. The eyes were also examined by electron microscopy. […] The test was repeated using 10 microliters of each of the substances each day for seven days with similar results.
# skin = conditions: cited from earlier work
# Salmonella = conditions: Ames type assays and chronic exposure studies; cited from earlier work
# [2] = animal and human experiments; cited from earlier work
# cornea = conditions: in vitro; cited from earlier work
# cornea epithelium = assay: differential scanning calorimetry of cornea epithelium of treated enucleated albino rabbit eyes
# Description: The reduced cornea damage by polyethylene glycol flurbiprofenate and bis-flurbiprofenate prodrugs in albino rabbit eyes was assessed by differential scanning calorimetry. Tests were conducted to investigate the effects of flurbiprofen and the polyethylene glycol flurbiprofen ester and the diester prodrugs on the cornea epithelium. […] The effects of these drugs on the molecular structure of the cornea epithelium were assessed by differential scanning calorimetry. Fresh enucleated albino rabbit eyes were treated in solutions and also in suspensions of flurbiprofen and also in solutions and suspensions of the polyethylene glycol esters and diesters of flurbiprofen in isotonic glutathione buffered ringer solution for 10 minutes. The cornea epithelium was then scraped from the corneas and immediately analyzed by differential scanning calorimetry over the range of 40°-110° C.
# Whenever a normal rabbit's cornea epithelium was analyzed a large endothermic transition at 64°±2° C. was observed. It has been established by previous work that this particular peak which was observed was due to a lipid.backslash.protein phase transition.
# [3] = applied for treatment of inflammation; cited from earlier work
# [4] = man; cited from earlier work
# [5] = PB (7.4), read-out: t1/2 in PB (7.4) (converted)
half-life (t1/2 in serum (Table 1); read-out: t1/2 in serum) [h],solubility (Solubility (Table 1); read-out: Solubility) [µg/mL],t1/2 in PB (7.4) ([1]; PB (7.4)),Molecule,further results
1.25,< 0.1,low solubility,"COc1ccc2cc(C(C)C(=O)OCCOCCOC(=O)C(C)c3ccc4cc(OC)ccc4c3)ccc2c1 (stereo not drawn) [Compound G-195.2, diester of naproxen and diethylene glycol]",
0.533,228 ± 5,,"CC(C(=O)OCCOCCOCCOCCO)c1ccc(-c2ccccc2)c(F)c1 (stereo not drawn) [Compound G-202.1, tetraethylene glycol 2-(2-fluoro-4-biphenylyl)propionate]","half-life [1, 5]: 144 h; degree of irritation to the cornea as compared to flurbiprofen in the acid form (rabbit eye): significantly reduced; conversion into the flurbiprofen acid form during transport into the eye (rabbit eye): converted into the flurbiprofen acid form during transport into the eye"
3.67,< 0.1,low solubility,"CC(C(=O)OCCOCCOCCOCCOC(=O)C(C)c1ccc(-c2ccccc2)c(F)c1)c1ccc(-c2ccccc2)c(F)c1 (stereo not drawn) [Compound G-202.2, tetraethylene glycol bis-2-(2-fluoro-4-biphenylyl)propionate]",degree of irritation to the cornea as compared to flurbiprofen in the acid form (rabbit eye): significantly reduced; conversion into the flurbiprofen acid form during transport into the eye (rabbit eye): converted into the flurbiprofen acid form during transport into the eye
0.433,< 0.1,very slow,"COc1ccc2cc(C(C)C(=O)OCCOCCOCCOCCOC(=O)C(C)c3ccc4cc(OC)ccc4c3)ccc2c1 (stereo not drawn) [Compound G-219.2, diester of naproxen and tetraethylene glycol]",
0.0617,6430 ± 617,several days,COc1ccc2cc(C(C)C(=O)OCCOCCOCCOCCOCCOCCO)ccc2c1 (stereo not drawn) [Compound G-220.1],
0.833,< 0.1,very slow,"COc1ccc2cc(C(C)C(=O)OCCOCCOCCOCCOCCOCCOC(=O)C(C)c3ccc4cc(OC)ccc4c3)ccc2c1 (stereo not drawn) [Compound G-220.2, diester of naproxen and hexaethylene glycol]",
2.78,< 0.1,very slow,"CC(C(=O)OCCOCCOCCOCCOCCOCCOC(=O)C(C)c1ccc(-c2ccccc2)c(F)c1)c1ccc(-c2ccccc2)c(F)c1 (stereo not drawn) [TC-242.1, hexaethylene glycol bis-flurbiprofenate]",
0.367,445 ± 34,several days,"CC(C(=O)OCCOCCOCCOCCOCCOCCO)c1ccc(-c2ccccc2)c(F)c1 (stereo not drawn) [TC-242.2, hexaethylene glycol flurbiprofenate]",

# Further lines, the molecule ahead of its results:
Molecule,half-life (t1/2 in serum (Table 1); read-out: t1/2 in serum) [h],solubility (Solubility (Table 1); read-out: Solubility) [µg/mL],t1/2 in PB (7.4) ([1]; PB (7.4)),further results
CC(C(=O)OCCOCCOCCO)c1ccc(-c2ccccc2)c(F)c1 (stereo not drawn) [Compound G-60],0.75,135 ± 4,,"half-life [1, 5]: 175 h"
"COc1ccc2cc(C(C)C(=O)OCCOCCOCCOCCO)ccc2c1 (stereo not drawn) [Compound G-167, monoester of naproxen and tetraethylene glycol]",0.0833,1120 ± 31,,"half-life [1, 5]: 300 h"
COc1ccc2cc(C(C)C(=O)OCCOCCOCCO)ccc2c1 (stereo not drawn) [Compound G-192.1],0.217,943 ± 25,,"half-life [1, 5]: 230 h"
COc1ccc2cc(C(C)C(=O)OCCOCCOCCOC(=O)C(C)c3ccc4cc(OC)ccc4c3)ccc2c1 (stereo not drawn) [Compound G-192.2],0.833,< 0.1,low solubility,
COc1ccc2cc(C(C)C(=O)OCCOCCO)ccc2c1 (stereo not drawn) [Compound G-195.1],0.967,553 ± 27,,"half-life [1, 5]: 80 h"
"CC1(C)O[C@@H]2C[C@H]3[C@@H]4CCC5=CC(=O)C=C[C@]5(C)[C@@]4(F)[C@@H](O)C[C@]3(C)[C@]2(C(=O)COC(=O)OCCOCCOCCOCCO)O1 [Compound G-196.1, carbonate linked ester of triamcinolone acetonide and tetraethylene glycol]",,,,half-life (t1/2 in serum (Table 1)): 3.8 h; half-life ([1]; pb): 136 h; solubility (Solubility (Table 1)): 391 ± 49 µg/mL
"CC1(C)O[C@@H]2C[C@H]3[C@@H]4CCC5=CC(=O)C=C[C@]5(C)[C@@]4(F)[C@@H](O)C[C@]3(C)[C@]2(C(=O)COC(=O)OCCOCCO)O1 [Compound G-197.1, carbonate linked ester of triamcinolone acetonide and diethylene glycol]",,,,half-life (t1/2 in serum (Table 1)): 0.167 h; half-life ([1]; pb): 101 h; solubility (Solubility (Table 1)): 74 ± 3 µg/mL
CN1CCCC1=O [N-methyl-2-pyrrolidone],,,,penetration enhancement (skin): effective penetration enhancer; toxicity (Salmonella): have not revealed any significant toxicity; irritation or sensitization potential [2]: very little irritation or sensitization potential
"CC(C(=O)O)c1ccc(-c2ccccc2)c(F)c1 (stereo not drawn) [flurbiprofen, 2(2-fluoro-4-biphenylyl)propionic acid]",,,,cornea barrier function (cornea): impairs cornea barrier function in vitro; normal protein/lipid structure of cornea epithelium (cornea epithelium): substantially total breakdown of the normal protein/lipid structure; local irritation [3]: produces local irritation; irritation [4]: irritating in man
benzalkonium chloride,,,,intensity of the phase transition peak of cornea epithelium by DSC (cornea epithelium; compounds known to damage the cornea): greatly reduce the intensity of this observed peak
